Reference: the NIST ThermoML archive (doi:10.1021/je800271e)
Numbers after ± are expanded uncertainties.

Columns and labels:
[1] = xn = mol fraction of the nth substance listed; conditions: for viscosity: Liquid
[2] = for viscosity: Liquid

O [water] + OCCO
[1], x2 = 0
Conditions	surface tension liquid-gas [mN/m]	viscosity [mPa·s]
308.15 K	71.02 ± 1.4	0.721 ± 0.048
313.15 K	69.69 ± 1.4	0.6532 ± 0.045
318.15 K	67.68 ± 1.4	0.59 ± 0.041
323.15 K	66.12 ± 1.4	0.55 ± 0.039

OCCO [1,2-ethanediol] + O
[1]
Conditions	surface tension liquid-gas, 308.15 K [mN/m]	surface tension liquid-gas, 313.15 K [mN/m]	surface tension liquid-gas, 318.15 K [mN/m]	surface tension liquid-gas, 323.15 K [mN/m]	viscosity, 308.15 K [mPa·s]	viscosity, 313.15 K [mPa·s]	viscosity, 318.15 K [mPa·s]	viscosity, 323.15 K [mPa·s]
x1 = 0.0145	69.73 ± 1.4	66.55 ± 1.4	65.92 ± 1.4	63.24 ± 1.3	0.7543 ± 0.05	0.7037 ± 0.047	0.6336 ± 0.043	0.5878 ± 0.041
x1 = 0.0312	67.83 ± 1.4	65.58 ± 1.4	63.92 ± 1.3	60.58 ± 1.3	0.8381 ± 0.055	0.764 ± 0.051	0.6785 ± 0.046	0.6321 ± 0.043
x1 = 0.0484	66.13 ± 1.4	64.09 ± 1.3	62.24 ± 1.3	59.62 ± 1.3	0.9241 ± 0.06	0.8372 ± 0.055	0.7424 ± 0.05	0.6876 ± 0.046
x1 = 0.0686	64.57 ± 1.3	62.51 ± 1.3	60.57 ± 1.3	57.96 ± 1.2	1.021 ± 0.065	0.9256 ± 0.06	0.7995 ± 0.053	0.7433 ± 0.05
x1 = 0.0883	63.27 ± 1.3	61.32 ± 1.3	59.21 ± 1.3	56.77 ± 1.2	1.133 ± 0.071	1.017 ± 0.065	0.8755 ± 0.057	0.8133 ± 0.053
x1 = 0.1107	62.14 ± 1.3	60.32 ± 1.3	58.41 ± 1.3	55.75 ± 1.2	1.266 ± 0.079	1.127 ± 0.071	0.9589 ± 0.062	0.8853 ± 0.058
x1 = 0.1621	60.02 ± 1.3	58.1 ± 1.2	56.25 ± 1.2	54.15 ± 1.2	1.574 ± 0.096	1.405 ± 0.087	1.184 ± 0.074	1.082 ± 0.068
x1 = 0.2247	57.51 ± 1.2	55.92 ± 1.2	54.36 ± 1.2	52.15 ± 1.2	2.036 ± 0.12	1.772 ± 0.11	1.48 ± 0.091	1.339 ± 0.083
x1 = 0.3032	56.03 ± 1.2	54.45 ± 1.2	52.66 ± 1.2	50.52 ± 1.1	2.662 ± 0.16	2.298 ± 0.14	1.888 ± 0.11	1.679 ± 0.1
x1 = 0.4035	54.03 ± 1.2	52.41 ± 1.2	50.65 ± 1.1	49.12 ± 1.1	3.512 ± 0.2	3.017 ± 0.18	2.468 ± 0.15	2.179 ± 0.13
x1 = 0.5366	52.47 ± 1.2	50.7 ± 1.1	49.34 ± 1.1	47.88 ± 1.1	4.7 ± 0.27	4.054 ± 0.23	3.283 ± 0.19	2.874 ± 0.17
x1 = 1	50.11 ± 1.1	48.73 ± 1.1	47.25 ± 1.1	46.41 ± 1.1	9.212 ± 0.45	7.961 ± 0.4	6.293 ± 0.34	5.447 ± 0.3

OCCO [1,2-ethanediol]
[2]
Conditions	surface tension liquid-gas [mN/m]	viscosity [mPa·s]
308.15 K	50.11 ± 1.1	9.212 ± 0.45
313.15 K	48.73 ± 1.1	7.961 ± 0.4
318.15 K	47.25 ± 1.1	6.293 ± 0.34
323.15 K	46.41 ± 1.1	5.447 ± 0.3
